{"source": "patent US9572788B2", "about": "“Cell permeable inhibitors of anaphase promoting complex” (President and Fellows of Harvard College, priority 2014, dated 2017)", "format_in_all_cases": "cell-based, human", "key": {"HeLa H2B-GFP cells": {"tested_on": "HeLa H2B-GFP cells", "assay": "Chromosome congression analysis", "details": "for Congression delay: 10 nM nocodazole or 12 μM proTAME; for Average chromosome congression time / Median chromosome congression time: Fig S4C", "procedure": "HeLa H2B-GFP cells were plated in 35 mm glass-bottom dishes (MatTek) in DMEM+10% FBS at 20% confluence one day prior to the experiment and synchronized by double thymidine block as described above. Drugs were added as follows to a final volume of 3 ml from 2× concentrated preparation in culture medium. DMSO (0.06%), proTAME (3 and 12 μM) or 10 nM Nocodazole were added 8 h after release from the second block, while MG132 (10 μM) was added at 10 h. H2B-GFP was imaged for 4 hrs every 3 min at 40× magnification as described above."}, "HeLa cells": {"tested_on": "HeLa cells", "assay": "Immunofluorescence of mitotic spindle and interkinetochore distance", "set-up": "Median inter-kinetochore distance / Average inter-kinetochore distance: unit not given here", "details": "for Effect on mitotic spindle: asynchronous HeLa, 2 h, 12 μM proTAME, nocodazole or taxol", "procedure": "HeLa cells grown in DMEM+10% FBS were plated on 25 mm glass coverslips in a E-well dish at a density of 130,000/ml×3 ml 48 h prior to treatment. They were then treated with 0.06% DMSO, 12 μM proTAME, 300 nM nocodazole or 300 nM taxol for 2 h. The cells were washed twice with PBS and fixed with 3% paraformaldehyde for 15 min. The cells were then washed with PBS and permeabilized with PBS plus 0.5% Triton X-100 for 2 min. The cells were then washed with PBS and blocked with PBS plus 5% FBS for 1 h. CREST antisera diluted 1:50 into PBS was added to the cells and incubated at room temperature for 1 h. The cells were washed with PBS and incubated with 1:1000 anti-human-Alexa 568 (Invitrogen, A21090) and 1:100 anti-α-tubulin-FITC for 1 h. The cells were then washed with PBS and the nuclei were stained with 1 μg/ml Hoechst 33342. The cover slips were mounted in 0.1M N-propylgallate in 9:1 glycerol:PBS. Z-series images were taken on a Nikon TE2000 microscope with PerkinElmer spinning disk confocal device. Maximal Z-projection images of individual cells were made by Image J. To measure interkinetochore distances, a straight line was drawn across a kinetochore pair in the same confocal plane and pixel intensities along the line were plotted so that each kinetochore would be represented by a peak on the line. The interkinetochore distance was calculated as the distance between the peaks. Fifty-five kinetochore pairs from 5 cells treated with DMSO or proTAME were measured and the p-value was calculated with a paired student test."}, "HeLa H2B-RFP cells": {"tested_on": "HeLa H2B-RFP cells", "assay": "Exogenous cyclin-GFP expression, live-cell imaging and quantitation", "details": "Fig 5D; GFP at 60 min vs onset of mitosis; 20 μM proTAME or proAAME, 150 nM nocodazole", "procedure": "HeLa H2B-RFP cells were transduced with cyclin B1-GFP or cyclin A2-GFP adenovirus for 40 h. Phenol Red-Free DMEM (Mediatech) supplemented with 10% FBS and 1:100 Penicillin-Streptomycin-Glutamine (Mediatech) was used as imaging medium. 20 μM proAAME, 20 μM proTAME or 150 nM nocodazole was added 45 min prior to the start of imaging. Live cell imaging was set up as described above except that the cells were plated in an 8-well chambered coverglasses (NUNC Lab-tek 155411). Four positions per treatment group were imaged with DIC transmitted light, red fluorescence, and green fluorescence (Semrock GFP/HcRed “Pinkel” filter set) at 12 min intervals for 24 h. Stacks of red and green fluorescence were merged, saved as AVI video files and analyzed using ImageJ. For quantitation, the first GFP-positive cells that undergo mitosis in three separate movies were chosen, giving at least 30 cells quantitated for each treatment group. Mean intensity values for the green channel were collected for a cytoplasmic region of a cell upon mitotic entry, mitotic exit, or after 1 h of mitotic arrest. At the same time points, background mean green intensity was determined and individually subtracted from the cytoplasmic mean intensity. This background corrected mean intensity value was then used to determine the percentage of the original GFP signal remaining at the completion of division (for the control cells) or after 1 h of mitotic arrest (for the nocodazole and proTAME treated cells). The average values for all quantitated cells were plotted with the error bars representing standard error of the mean."}, "[1]": {"details": "proTAME 12 μM, MG132 10 μM, nocodazole 10 nM"}}, "data": [{"smiles": "COC(=O)Nc1nc2ccc(C(=O)c3cccs3)cc2[nH]1", "note": "[Nocodazole, reference compound]", "values": [{"measurement": "Congression delay", "setting": "HeLa H2B-GFP cells", "value": 6, "unit": "min"}, {"measurement": "Average chromosome congression time", "setting": "HeLa H2B-GFP cells; [1]", "value": 26.2, "unit": "min"}, {"measurement": "Median chromosome congression time", "setting": "HeLa H2B-GFP cells; [1]", "value": 24, "unit": "min"}, {"measurement": "Effect on mitotic spindle", "setting": "HeLa cells", "value": "strongly perturbed spindle organization"}, {"measurement": "Average cyclin A2-GFP (fraction remaining)", "setting": "HeLa H2B-RFP cells", "value": 0.28, "unit": "fraction remaining"}, {"measurement": "Average cyclin B1-GFP (fraction remaining)", "setting": "HeLa H2B-RFP cells", "value": 0.87, "unit": "fraction remaining"}, {"measurement": "Median cyclin A2-GFP (fraction remaining)", "setting": "HeLa H2B-RFP cells", "value": 0.28, "unit": "fraction remaining"}, {"measurement": "Median cyclin B1-GFP (fraction remaining)", "setting": "HeLa H2B-RFP cells", "value": 0.83, "unit": "fraction remaining"}]}, {"smiles": "COC(=O)[C@H](CCCN/C(=N\\C(=O)OCOC(=O)Cc1ccccc1)NC(=O)OCOC(=O)Cc1ccccc1)NS(=O)(=O)c1ccc(C)cc1", "note": "[proTAME]", "values": [{"measurement": "Congression delay", "setting": "HeLa H2B-GFP cells", "value": 6, "unit": "min"}, {"measurement": "Delay in chromosome congression", "setting": "HeLa H2B-GFP cells; 3 μM proTAME or 10 μM MG132", "value": "caused no delay in chromosome congression"}, {"measurement": "Time to achieve metaphase, average", "setting": "HeLa H2B-GFP cells; Example 2, 12 (μM) proTAME, 15 minutes for DMSO", "value": 40, "unit": "min"}, {"measurement": "Average chromosome congression time", "setting": "HeLa H2B-GFP cells; proTAME 3 μM", "value": 21.7, "unit": "min"}, {"measurement": "Median chromosome congression time", "setting": "HeLa H2B-GFP cells; proTAME 3 μM", "value": 21, "unit": "min"}, {"measurement": "Average chromosome congression time", "setting": "HeLa H2B-GFP cells; [1]", "value": 26.0, "unit": "min"}, {"measurement": "Median chromosome congression time", "setting": "HeLa H2B-GFP cells; [1]", "value": 24, "unit": "min"}, {"measurement": "Average inter-kinetochore distance", "setting": "HeLa cells; Fig 5E, 12 μM proTAME for 2 h", "value": 1.26}, {"measurement": "Median inter-kinetochore distance", "setting": "HeLa cells; Fig 5E, 12 μM proTAME for 2 h", "value": 1.28}, {"measurement": "Effect on mitotic spindle", "setting": "HeLa cells", "value": "no measurable differences in mitotic spindle morphology or inter-kinetochore distance"}, {"measurement": "Average cyclin A2-GFP (fraction remaining)", "setting": "HeLa H2B-RFP cells", "value": 0.99, "unit": "fraction remaining"}, {"measurement": "Average cyclin B1-GFP (fraction remaining)", "setting": "HeLa H2B-RFP cells", "value": 1.17, "unit": "fraction remaining"}, {"measurement": "Median cyclin A2-GFP (fraction remaining)", "setting": "HeLa H2B-RFP cells", "value": 0.95, "unit": "fraction remaining"}, {"measurement": "Median cyclin B1-GFP (fraction remaining)", "setting": "HeLa H2B-RFP cells", "value": 1.17, "unit": "fraction remaining"}]}]}
